According to PubChem BioAssay AID256 (DTP/NCI, 2004):
“And” between values parts separate entries of the source, which are not always exact repeats. Equal values may be shown once. Inconclusive results and toxic doses are left out. Rule for the calls: active = survival T/C of 150% or more; inactive = T/C below 125% in these data.

Test system: CD2F1 mice, L1210 leukemia ip, survival T/C
Assay: NCI In Vivo Anticancer Drug Screen. Data for tumor model L1210 Leukemia (intraperitoneal) in CD2F1 (CDF1) mice
Conditions: higher = longer survival
Outline: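 Implant tumor; dose compound or vehicle; measure endpoint in both groups; report treated divided by control.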

[1] = endpoint: mean survival time, dose: 25.0 mg/kg/injection, schedule: Q04DX002 (ip), vehicle: saline with Tween-80
[2] = endpoint: mean survival time, dose: 50.0 mg/kg/injection, schedule: Q04DX002 (ip), vehicle: saline with Tween-80
[3] = endpoint: mean survival time, dose: 100.0 mg/kg/injection, schedule: Q01DX009 (ip), vehicle: saline with Tween-80
[4] = endpoint: mean survival time, dose: 100.0 mg/kg/injection, schedule: Q04DX003 (ip), vehicle: saline
[5] = endpoint: mean survival time, dose: 200.0 mg/kg/injection, schedule: Q01DX009 (ip), vehicle: saline with Tween-80
[6] = endpoint: mean survival time, dose: 200.0 mg/kg/injection, schedule: Q04DX003 (ip), vehicle: saline
[7] = endpoint: mean survival time, dose: 400.0 mg/kg/injection, schedule: Q04DX003 (ip), vehicle: saline
[8] = endpoint: mean survival time, dose: 12.5 mg/kg/injection, schedule: Q04DX003 (ip), vehicle: saline

Measured: T/C

CC(=O)Nc1ccncn1
inactive: [1] 97 % of control | [2] 100 % of control

CNC(=O)Nc1cc(C)ccc1OC
inactive: endpoint: mean survival time, dose: 50.0 mg/kg/injection, schedule: Q01DX009 (ip), vehicle: saline 106 % of control | endpoint: mean survival time, dose: 100.0 mg/kg/injection, schedule: Q01DX009 (ip), vehicle: saline 101 % of control | endpoint: mean survival time, dose: 200.0 mg/kg/injection, schedule: Q01DX009 (ip), vehicle: saline 107 % of control

Nc1nc(N)c2c(n1)NCN(OCc1c(Cl)cccc1Cl)C2
inactive: endpoint: mean survival time, dose: 0.75 mg/kg/injection, schedule: Q01DX009 (ip), vehicle: water 96 % of control | endpoint: mean survival time, dose: 1.5 mg/kg/injection, schedule: Q01DX009 (ip), vehicle: water 100 % of control | endpoint: mean survival time, dose: 3.0 mg/kg/injection, schedule: Q01DX009 (ip), vehicle: water 102 % of control | endpoint: mean survival time, dose: 6.0 mg/kg/injection, schedule: Q01DX009 (ip), vehicle: water 102 % of control | endpoint: mean survival time, dose: 12.0 mg/kg/injection, schedule: Q01DX009 (ip), vehicle: water 104 % of control | endpoint: mean survival time, dose: 24.0 mg/kg/injection, schedule: Q01DX009 (ip), vehicle: water 100 % of control

CC1=C(N)C(=O)c2c(COC(N)=O)c3n(c2C1=O)C[C@H]1N[C@@H]31
inactive: endpoint: mean survival time, dose: 3.0 mg/kg/injection, schedule: Q01DX001 (ip), vehicle: distilled water + Tween-80 105 % of control | endpoint: mean survival time, dose: 6.0 mg/kg/injection, schedule: Q01DX001 (ip), vehicle: distilled water + Tween-80 100 % of control | endpoint: mean survival time, dose: 12.0 mg/kg/injection, schedule: Q01DX001 (ip), vehicle: distilled water + Tween-80 100 % of control | endpoint: mean survival time, dose: 24.0 mg/kg/injection, schedule: Q01DX001 (ip), vehicle: distilled water + Tween-80 100 % of control | endpoint: mean survival time, dose: 48.0 mg/kg/injection, schedule: Q01DX001 (ip), vehicle: distilled water + Tween-80 94 % of control

Cc1nc(N)n[nH]1
inactive: [3] 92 % of control | [4] 102 % of control | [5] 97 % of control | [6] 100 % of control | endpoint: mean survival time, dose: 400.0 mg/kg/injection, schedule: Q01DX009 (ip), vehicle: saline with Tween-80 88 % of control | [7] 96 % of control

CCCC(C)(CCC)OC(=O)Nc1cccc2ccccc12
inactive: endpoint: mean survival time, dose: 100.0 mg/kg/injection, schedule: Q01DX001 (ip), vehicle: saline with Tween-80 92 % of control | endpoint: mean survival time, dose: 200.0 mg/kg/injection, schedule: Q01DX001 (ip), vehicle: saline with Tween-80 92 % of control | endpoint: mean survival time, dose: 400.0 mg/kg/injection, schedule: Q01DX001 (ip), vehicle: saline with Tween-80 92 % of control

COc1ccccc1[As](=O)(O)CC(O)COc1ccc(Cl)cc1Cl (configuration not stated)
inactive: endpoint: mean survival time, dose: 6.25 mg/kg/injection, schedule: Q04DX003 (ip), vehicle: saline 98 % of control | [8] 96 % of control

O=C(Oc1ccc(O)cc1)N(c1cccc2ccccc12)c1cccc2ccccc12
inactive: [1] 100 % of control | [2] 95 % of control | endpoint: mean survival time, dose: 100.0 mg/kg/injection, schedule: Q04DX002 (ip), vehicle: saline with Tween-80 91 % of control and 98 % of control | endpoint: mean survival time, dose: 400.0 mg/kg/injection, schedule: Q04DX002 (ip), vehicle: saline with Tween-80 95 % of control

CCC(C)N(CCCOC(=O)c1ccc(N)cc1)C(C)CC (configuration not stated)
inactive: [8] 103 % of control | endpoint: mean survival time, dose: 25.0 mg/kg/injection, schedule: Q04DX003 (ip), vehicle: saline 107 % of control | endpoint: mean survival time, dose: 50.0 mg/kg/injection, schedule: Q04DX003 (ip), vehicle: saline 103 % of control

C=CCc1cc(OC)ccc1OC(C)=O
inactive: endpoint: mean survival time, dose: 100.0 mg/kg/injection, schedule: Q04DX003 (ip), vehicle: saline with Tween-80 113 % of control | endpoint: mean survival time, dose: 200.0 mg/kg/injection, schedule: Q04DX003 (ip), vehicle: saline with Tween-80 97 % of control | endpoint: mean survival time, dose: 400.0 mg/kg/injection, schedule: Q04DX003 (ip), vehicle: saline with Tween-80 105 % of control

O=c1n(-c2ccccc2)c(=O)n2n1CC(c1ccccc1)=N2
inactive: endpoint: mean survival time, dose: 12.5 mg/kg/injection, schedule: Q01DX009 (ip), vehicle: other 97 % of control | endpoint: mean survival time, dose: 25.0 mg/kg/injection, schedule: Q01DX009 (ip), vehicle: other 100 % of control | endpoint: mean survival time, dose: 50.0 mg/kg/injection, schedule: Q01DX009 (ip), vehicle: other 97 % of control | endpoint: mean survival time, dose: 100.0 mg/kg/injection, schedule: Q01DX009 (ip), vehicle: other 103 % of control | endpoint: mean survival time, dose: 200.0 mg/kg/injection, schedule: Q01DX009 (ip), vehicle: other 96 % of control

CCOC(=O)C[n+]1ccccc1
inactive: [4] 107 % of control and 95 % of control | [6] 90 % of control and 89 % of control

CCC(C)(O)C(C)N(C)c1ccccc1 (configuration not stated)
inactive: [4] 102 % of control and 97 % of control | [6] 102 % of control and 100 % of control | [7] 102 % of control and 106 % of control

O=NC1CC=CC1Cl (configuration not stated)
inactive: endpoint: mean survival time, dose: 100.0 mg/kg/injection, schedule: Q01DX001 (ip), vehicle: saline 96 % of control and 98 % of control | endpoint: mean survival time, dose: 200.0 mg/kg/injection, schedule: Q01DX001 (ip), vehicle: saline 107 % of control and 102 % of control | endpoint: mean survival time, dose: 400.0 mg/kg/injection, schedule: Q01DX001 (ip), vehicle: saline 101 % of control and 98 % of control

O=C(O)c1cccc2ccc(F)cc12
inactive: endpoint: median survival time, dose: 50.0 mg/kg/injection, schedule: Q04DX002 (ip), vehicle: saline with Tween-80 100 % of control | endpoint: median survival time, dose: 100.0 mg/kg/injection, schedule: Q04DX002 (ip), vehicle: saline with Tween-80 100 % of control | endpoint: median survival time, dose: 200.0 mg/kg/injection, schedule: Q04DX002 (ip), vehicle: saline with Tween-80 100 % of control | endpoint: median survival time, dose: 400.0 mg/kg/injection, schedule: Q04DX002 (ip), vehicle: saline with Tween-80 88 % of control

N#CC(C(=O)c1ccccc1)c1ccccc1 (configuration not stated)
inactive: endpoint: mean survival time, dose: 75.0 mg/kg/injection, schedule: Q01DX001 (ip), vehicle: other 100 % of control | endpoint: mean survival time, dose: 150.0 mg/kg/injection, schedule: Q01DX001 (ip), vehicle: other 101 % of control | endpoint: mean survival time, dose: 300.0 mg/kg/injection, schedule: Q01DX001 (ip), vehicle: other 106 % of control

O=C1CC(c2ccccc2)=NCCN1
inactive: endpoint: mean survival time, dose: 100.0 mg/kg/injection, schedule: Q01DX001 (ip), vehicle: Klucel (hydroxypropylcellulose) (HPC) 100 % of control | endpoint: mean survival time, dose: 200.0 mg/kg/injection, schedule: Q01DX001 (ip), vehicle: Klucel (hydroxypropylcellulose) (HPC) 102 % of control | endpoint: mean survival time, dose: 400.0 mg/kg/injection, schedule: Q01DX001 (ip), vehicle: Klucel (hydroxypropylcellulose) (HPC) 103 % of control

COC(=O)C1=CCC=CC1
inactive: [3] 104 % of control | [5] 104 % of control

Cc1cn(C2OC(CO)C(O)C2O)c([Se])nc1=O (configuration not stated)
inactive: endpoint: mean survival time, dose: 50.0 mg/kg/injection, schedule: Q01DX005 (ip), vehicle: water 97 % of control | endpoint: mean survival time, dose: 100.0 mg/kg/injection, schedule: Q01DX005 (ip), vehicle: water 90 % of control | endpoint: mean survival time, dose: 200.0 mg/kg/injection, schedule: Q01DX005 (ip), vehicle: water 90 % of control

C[P+](c1ccc(F)cc1)(c1ccc(F)cc1)c1ccc(F)cc1
inactive: [1] 100 % of control | [2] 92 % of control
